Measured values: ChEMBL document CHEMBL3638567, “2-heteroaryl carboxamides” (2015)

Target: Neuronal acetylcholine receptor subunit alpha-7 (Rattus norvegicus, UniProt Q05941)
Test: Binding Assay: The [3H]-methyllycaconitine binding assay is a modification of the method described by Davies et al. in Neuropharmacol. 1999, 38, 679-690.Rat brain tissue (hippocampus or whole brain) is homogenized in homogenization buffer (10% w/v, 0.32 M sucrose, 1 mM EDTA, 0.1 mM phenylmethylsulphonyl fluoride (PMSF), 0.01% (w/v) NaN3, pH 7.4, 4 C.) at 600 rpm in a glass homogenizer. The homogenate is centrifuged (1000xg, 4 C., 10 min) and the supernatant is removed. The pellet is resuspended (20% w/v) and the suspension is centrifuged (1000xg, 4 C., 10 min). The two supernatants are combined and centrifuged (15 000xg, 4 C., 30 min). The pellet obtained in this way is referred to as the P2 fraction.The P2 pellet is suspended in binding buffer (50 mM Tris-HCl, 1 mM MgCl2, 120 mM NaCl, 5 mM KCl, 2 mM CaCl2, pH 7.4), and the suspension is centrifuged (15 000xg, 4 C., 30 min), twice.The residue is resuspended in binding buffer and incubated in a volume of 250 ul.
Format: tissue-based

Neuronal acetylcholine receptor subunit alpha-7, sequence (Q05941 whole entry): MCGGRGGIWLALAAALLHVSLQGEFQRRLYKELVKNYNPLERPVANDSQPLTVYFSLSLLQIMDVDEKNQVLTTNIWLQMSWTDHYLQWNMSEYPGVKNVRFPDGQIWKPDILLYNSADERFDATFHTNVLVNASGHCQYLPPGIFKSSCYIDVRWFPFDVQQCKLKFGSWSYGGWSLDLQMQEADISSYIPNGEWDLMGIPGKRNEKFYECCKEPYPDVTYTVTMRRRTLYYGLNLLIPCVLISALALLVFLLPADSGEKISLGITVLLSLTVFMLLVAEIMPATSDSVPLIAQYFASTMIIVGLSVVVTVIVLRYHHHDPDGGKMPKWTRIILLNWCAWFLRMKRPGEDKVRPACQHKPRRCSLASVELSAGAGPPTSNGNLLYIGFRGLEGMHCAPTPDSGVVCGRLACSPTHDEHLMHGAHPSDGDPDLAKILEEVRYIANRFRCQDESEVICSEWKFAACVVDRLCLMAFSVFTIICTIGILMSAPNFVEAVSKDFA

Compared with `CN1CCN(C(=O)c2cccc(-c3cccc4cc(C(=O)N[C@H]5CN6CCC5CC6)oc34)c2)CC1`, `O=C(NC1CC1)c1cccc(-c2cccc3cc(C(=O)N[C@H]4CN5CCC4CC5)oc23)c1` is 4.7-fold lower in Ki: 14 nM for the first, 3 nM for the second. The second binds more tightly here.

For `CNC(=O)NCc1ccccc1-c1cccc2cc(C(=O)N[C@H]3CN4CCC3CC4)sc12`, the Ki was 3.3 nM.
